# Reference: ChEMBL document CHEMBL6092216, “Development of α-Helical Antimicrobial Peptides with Imperfect Amphipathicity for Superior Activity and Selectivity” (J Med Chem, 2024)
# Calls of active or inactive are those of the source. The rule behind the calls is not given here.
# What was measured:
# [1] = system: Staphylococcus aureus; experiment: Antibacterial activity against methicillin-resistant Staphylococcus aureus 21 assessed as inhibition of bacterial growth incubated for 24 hrs by tube microdilution assay; assay type: functional
# [2] = system: Staphylococcus aureus; experiment: Induction of bacterial cell rupture in Staphylococcus aureus ATCC 6538 assessed as membrane rupture, roughening and blebbing of membrane at 5XMIC measured after 30 mins by transmission electron microscopy; assay type: functional, organism-based
# [3] = system: Staphylococcus aureus; experiment: Antibacterial activity against methicillin-resistant Staphylococcus aureus 11 assessed as inhibition of bacterial growth incubated for 24 hrs by tube microdilution assay; assay type: functional
# [4] = system: Staphylococcus aureus; experiment: Ratio of MIC for antibacterial activity against Staphylococcus aureus ATCC 6538 measured following incubation of drug with mouse plasma for 8 hrs to MIC for antibacterial activity against Staphylococcus aureus ATCC 6538; assay type: functional
# [5] = system: Staphylococcus aureus; experiment: Antibacterial activity against Staphylococcus aureus 15775 assessed as inhibition of bacterial growth incubated for 24 hrs by tube microdilution assay; assay type: functional
# [6] = system: Staphylococcus aureus; experiment: Antibacterial activity against methicillin-resistant Staphylococcus aureus 22 assessed as inhibition of bacterial growth incubated for 24 hrs by tube microdilution assay; assay type: functional
# [7] = system: Cell membrane; experiment: Induction of membrane permeabilization in Escherichia coli 0894 assessed as increase in fluorescence intensity at 1X to 10XMIC measured for 90 mins by propidium iodide staining based fluorescence analysis; assay type: subcellular
# [8] = system: Acinetobacter baumannii; experiment: Antibiofilm activity against Acinetobacter baumannii ATCC 19606 assessed as inhibition of biofilm formation at 1X to 10XMIC incubated for 24 hrs by crystal violet staining based analysis; assay type: functional, organism-based
# [9] = system: Pseudomonas aeruginosa; experiment: Antibiofilm activity against preformed Pseudomonas aeruginosa ATCC 27853 biofilms assessed as biofilm eradication at 1X to 10XMIC incubated for 24 hrs by crystal violet staining based analysis; assay type: functional, organism-based
# [10] = system: Escherichia coli; experiment: Antibacterial activity against Escherichia coli 1007 assessed as inhibition of bacterial growth incubated for 24 hrs by tube microdilution assay; assay type: functional
# [11] = system: Staphylococcus aureus; experiment: Antibacterial activity against methicillin-resistant Staphylococcus aureus 41 assessed as inhibition of bacterial growth incubated for 24 hrs by tube microdilution assay; assay type: functional
# [12] = system: Pseudomonas aeruginosa; experiment: Antipersister-activity against Pseudomonas aeruginosa ATCC 27853 assessed as elimination of persister cells preincubated adherent persistent cells with colistin for 24 hrs followed by incubation with drug for 12 hrs; assay type: functional, organism-based
# [13] = system: Acinetobacter baumannii; experiment: Antibiofilm activity against preformed Acinetobacter baumannii ATCC 19606 biofilms assessed as biofilm eradication at 1X to 10XMIC incubated for 24 hrs by crystal violet staining based analysis; assay type: functional, organism-based
# [14] = system: Staphylococcus aureus; experiment: Antibacterial activity against methicillin-resistant Staphylococcus aureus Z assessed as inhibition of bacterial growth incubated for 24 hrs by tube microdilution assay; assay type: functional
# [15] = system: Pseudomonas aeruginosa; experiment: Bactericidal activity against Pseudomonas aeruginosa ATCC 27853 assessed as bacterial cell killing measured after 60 passages; assay type: functional, organism-based
# [16] = system: Acinetobacter baumannii; experiment: Antibacterial activity against Acinetobacter baumannii ATCC 19606 assessed as inhibition of bacterial growth by tube microdilution assay; assay type: functional
# [17] = system: Staphylococcus aureus; experiment: Induction of bacterial cell rupture in Staphylococcus aureus ATCC 6538 assessed as membrane rupture, roughening and blebbing of membrane at 5XMIC measured after 30 mins by scanning electron microscopy; assay type: functional, organism-based
# [18] = system: Pseudomonas aeruginosa; experiment: Antibiofilm activity against Pseudomonas aeruginosa ATCC 27853 assessed as inhibition of biofilm formation at 1X to 10XMIC incubated for 24 hrs by crystal violet staining based analysis; assay type: functional, organism-based
# [19] = system: Escherichia coli; experiment: Antibacterial activity against Escherichia coli 0894 assessed as inhibition of bacterial growth incubated for 24 hrs by tube microdilution assay; assay type: functional
# [20] = system: Acinetobacter baumannii; experiment: Antipersister-activity against Acinetobacter baumannii ATCC 19606 assessed as elimination of persister cells preincubated adherent persistent cells with colistin for 24 hrs followed by incubation with drug for 12 hrs; assay type: functional, organism-based
substance,measurement,setting,value
H-RRGIKKFIKKVKKVKKAI-OH,MIC,[1],2.34 µg/mL
same,Activity,[2],Active; Roughening And Blebbing Of Membrane Is Less Pronounced Than In Pseudomonas Aeruginosa
same,MIC,[3],2.34 µg/mL
same,Ratio,[4],4
same,MIC,[5],2.34 µg/mL
same,MIC,[6],2.34 µg/mL
same,Activity,[7],Dose-dependent-effect
same,Activity,[8],Dose-dependent-effect
same,Activity,[9],Active
same,MIC,[10],9.37 µg/mL
same,MIC,[11],2.34 µg/mL
same,Activity,[12],Dose-dependent-effect
same,Activity,[13],Active
same,MIC,[14],2.34 µg/mL
same,Activity,[15],Active
same,MIC,[16],2.34 µg/mL
same,Activity,[17],Active; Roughening And Blebbing Of Membrane Is Less Pronounced Than In Pseudomonas Aeruginosa
same,Activity,[18],Dose-dependent-effect
same,MIC,[19],9.37 µg/mL
same,Activity,[20],Dose-dependent-effect
